{"source": "patent US20240316064A1", "about": "“USE OF ESTRETOL AS A TREATMENT FOR ENDOMETRIOSIS” (UNIVERSIDAD BERNANDO O'HIGGINS, priority 2021, published 2024)", "key": {"PRB": {"test_system": "PRB", "experiment": "PRB protein levels by Western blot in endometriotic cells", "format": "cell-based"}, "PRA": {"test_system": "PRA", "experiment": "PRA protein levels by Western blot in endometriotic cells"}, "ERα/ERβ ratio": {"test_system": "ERα/ERβ ratio", "experiment": "ERα/ERβ ratio of protein levels in endometriotic cells", "format": "cell-based", "details": "versus control and estradiol conditions"}, "11Z cells": {"test_system": "11Z cells", "experiment": "Wound (scratch) migration assay, 11Z cells", "format": "cell-based", "details": "estetrol 10^−6, any time point studied", "description": "(§1) FIG. 1. Evaluation of apoptosis, cell viability and migration after treatments with E2 and E4 in endometriotic cells. (A) Western blot analysis against PARP and β-actin after 24 h incubation (B) MTS assay after 24 h incubation (C) Scratch assay."}, "[1]": {"test_system": "genes associated with the progesterone signaling pathway", "experiment": "PCR array for progesterone-regulated genes in Hs832 cells", "format": "cell-based", "details": "24 h E4 (10^−6M) then 6h pulse with P4 (10^−7M), versus P4 without pre-treatment; for expression of PTGER2, NF1, MUC1, TWIST1 and SNAI1: change to a lesser extent", "description": "FIG. 4. PCR Array Analysis for Progesterone-Regulated Genes in Endometrial Cells, Hs832 Cells. The expression of genes regulated by progesterone (P4) is compared, when incubating with P4 without previous treatment or with a 24 hour treatment with Estetrol.\nProcedure: Hs832 endometriosis cells were incubated for 24 h with E4 (10^−6M) or vehicle (ethanol) as a control, then both cells received a 6h pulse with P4 (10^−7M) to then extract their messenger RNA in order to evaluate the levels. expression of 24 genes associated with the progesterone signaling pathway."}, "ER β": {"test_system": "ER β", "experiment": "ERβ protein levels by Western blot in endometriotic cells", "format": "cell-based"}, "Hs832 cells": {"test_system": "Hs832 cells", "experiment": "Wound (scratch) migration assay, Hs832 cells", "format": "cell-based", "details": "Hs832, estetrol 10^−6, any time point studied", "description": "as §1"}, "11Z epithelial cells [2]": {"test_system": "11Z epithelial cells", "experiment": "MTS cell viability assay, 11Z cells", "format": "cell-based", "details": "24 h, all estetrol concentrations tested", "description": "as §1\n(§2) To assess cell viability, the MTS assay was performed after 24 h."}, "Hs832 stromal cell line [3]": {"test_system": "Hs832 stromal cell line", "experiment": "MTS cell viability assay, Hs832 cells", "format": "cell-based", "details": "24 h, all estetrol concentrations tested", "description": "as §1, §2"}, "Hs832 stromal cell line [4]": {"test_system": "Hs832 stromal cell line", "experiment": "PARP cleavage rate (apoptosis), Western blot, Hs832 cells", "format": "cell-based", "details": "24 h incubation, almost all estetrol concentrations (except 108M)", "description": "(§3) FIG. 1. […] (A) Western blot analysis against PARP and β-actin after 24 h incubation (B) MTS assay after 24 h incubation (C) Scratch assay. […] The experiments were performed on 2 cell lines, Hs832, endometrial stromal cells and 11Z cells, endometrial epithelium cells."}, "ERα": {"test_system": "ERα", "experiment": "ERα protein levels by Western blot in endometriotic cells", "format": "cell-based", "details": "most of the concentrations used"}, "11Z epithelial cells [5]": {"test_system": "11Z epithelial cells", "experiment": "PARP cleavage rate (apoptosis), Western blot, 11Z cells", "format": "cell-based", "details": "24 h incubation, most estetrol and estradiol concentrations", "description": "as §3"}}}
{"compound": "C[C@]12CC[C@@H]3c4ccc(O)cc4CC[C@H]3[C@@H]1[C@@H](O)[C@@H](O)[C@@H]2O", "note": "[estetrol]", "values": [{"measurement": "PRB protein levels over β-actin", "setting": "PRB; 11Z cells, estetrol, all concentrations used", "value": "more consistent increase"}, {"measurement": "PRB protein levels over β-actin", "setting": "PRB; HsS32, estetrol 10^−6/10^−5M", "value": "more consistent increase"}, {"measurement": "PRA protein levels over β-actin", "setting": "PRA; 11Z, estetrol 10^−9/10^−8M", "value": "increase"}, {"measurement": "PRA protein levels over β-actin", "setting": "PRA; Hs832, estetrol 10^−5M", "value": "increase"}, {"measurement": "PRA protein levels over β-actin", "setting": "PRA; HsS32, estetrol 10^−9/10^−7M", "value": "decreased"}, {"measurement": "ERα/ERβ ratio", "setting": "ERα/ERβ ratio; 11Z cells, estetrol 10^−7/10^−6/10^−5M", "value": "significantly increases"}, {"measurement": "ERα/ERβ ratio", "setting": "ERα/ERβ ratio; Hs832 cells, estetrol 10^−9/10^−7M", "value": "significantly increases"}, {"measurement": "migration (wound assay)", "setting": "11Z cells", "value": "showed no difference from the control"}, {"measurement": "decrease of expression of FGF12, GCFC2, PWP1, ITGA6, ZEB1, POSTN and FKBP25", "setting": "[1]", "value": "to a lesser extent"}, {"measurement": "expression of NFIX, GNRFI1, ESR1, MEF2D and I HH", "setting": "[1]", "value": "stimulating the expression"}, {"measurement": "expression of PRL, SNAI2, RAD54L, HES1, ABCG2, TCF4", "setting": "[1]", "value": "strongly decreasing"}, {"measurement": "expression of PTGER2, NF1, MUC1, TWIST1 and SNAI1", "setting": "[1]", "value": "increase"}, {"measurement": "expression of PTGER2, NF1, MUC1, TWIST1 and SNAI1", "setting": "[1]; listed as E4", "value": "increases"}, {"measurement": "expression of PRL, SNAI2, RAD54L, HES1, ABCG2, TCF4", "setting": "[1]; listed as E4", "value": "strongly decreases"}, {"measurement": "ER protein levels (ER β levels over β-actin, FIG. 2B)", "setting": "ER β; 11Z, estetrol, most concentrations used", "value": "reduced levels"}, {"measurement": "ER protein levels (ER β levels over β-actin, FIG. 2B)", "setting": "ER β; Hs832, estetrol, all conditions", "value": "reduced levels"}, {"measurement": "migration (wound assay)", "setting": "Hs832 cells", "value": "showed no difference from the control"}, {"measurement": "changes in cell viability compared to controls (MTS)", "setting": "11Z epithelial cells [2]", "value": "None of the estetrol concentrations tested showed changes"}, {"measurement": "changes in cell viability compared to controls (MTS)", "setting": "Hs832 stromal cell line [3]", "value": "None of the estetrol concentrations tested showed changes"}, {"measurement": "PARP cleavage rate (apoptosis)", "setting": "Hs832 stromal cell line [4]", "value": "significant decrease"}, {"measurement": "ERα levels over β-actin", "setting": "ERα; 11Z, estetrol", "value": "robust increase"}, {"measurement": "ERα levels over β-actin", "setting": "ERα; Hs832, estetrol", "value": "robust increase"}, {"measurement": "PARP cleavage rate (apoptosis)", "setting": "11Z epithelial cells [5]", "value": "apoptosis was reduced"}]}
